In the assay the target is T1, RORc ligand binding domain (Homo sapiens, UniProt P51449).
T1 sequence (P51449 269-508 limits assumed): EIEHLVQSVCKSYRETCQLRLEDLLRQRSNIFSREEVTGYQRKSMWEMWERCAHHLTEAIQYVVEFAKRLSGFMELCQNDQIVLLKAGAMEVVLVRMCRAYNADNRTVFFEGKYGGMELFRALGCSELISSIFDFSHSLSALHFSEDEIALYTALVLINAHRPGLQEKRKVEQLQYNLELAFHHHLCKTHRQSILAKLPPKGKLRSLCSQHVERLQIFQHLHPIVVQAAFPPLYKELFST
The assay is described as follows: In vitro RORc ligand binding assay (25-[3H]hydroxycholesterol displacement).
Description: This assay was used to determine a compound's potency in inhibiting activity of RORc by determining, Kiapp, IC50, or percent inhibition values.
On day of the assay, 100 uL of 0.05% CHAPS (in deionized H2O) was added to all wells of the GFB Unifilter plate and allowed soak for 1 h. A wash buffer of 50 mM HEPES (pH 7.4), 150 mM NaCl, and 5 mM MgCl2 was prepared to wash the filter plate. To prepare an assay buffer, BSA was added to the wash buffer to reach 0.01% and DTT was added to reach 1 mM.
The 20× compound stocks were diluted in DMSO with Assay Buffer 4-fold to reach 5× the final test concentration in 25% DMSO (10 uL compound+30 uL Assay Buffer). Solutions were mixed by aspiration several times with a pipette set on 50 uL volume.
For two point screening, 10 mM stock compound solutions were diluted in DMSO to obtain 200 uM (20× the high test concentration) and then diluted 10-fold further to reach 20 uM (20× the low test concentration). The 20× stocks were diluted 4-fold with Assay Buffer (10 uL compound+30 uL Assay Buffer) to reach 5× the test concentrations (50 uM and 5 uM) and 10 uL were added to two assay plates for the duplicate wells. With each concentration tested on 2 plates, each set of 80 compounds used 4 assay plates (1 uM and 10 uM, with n=2).
Nonspecific Binding (NSB) Samples, Total Binding (TB) Samples and No Receptor (No R) Samples
For 25-hydroxycholesterol in 25% DMSO/75% Assay Buffer; 10 uL per well was used for NSB samples. Wells for Total Binding and No Receptor sample determination contained 10 uL of 25% DMSO/75% Assay Buffer per well.
Radioligand 25-[^3H]Hydroxycholesterol) Preparation
Add 20 uL to all wells to reach 6 nM final in the assay.
Stock receptor solution was diluted in assay buffer to obtain 1.5 ug/mL in Assay Buffer. 20 uL was added to all wells. For No R samples, 20 uL Assay Buffer was substituted for receptor solution.
Sample addition to Plates and Incubation
Assay plates were 96-well polypropylene V-bottom plates. […] 10 uL of 25% DMSO/75% Assay Buffer was added to Total Binding or No Receptor wells. 10 uL of 5 uM 25-hydroxycholesterol in 25% DMSO/75% Assay Buffer was added to NSB wells. […] 20 uL of 1.5 ug/mL RORc receptor was added to wells (or 40 uL Assay Buffer to No R wells). Following addition to the wells, the plates were incubated 3 h at 25° C.
Using a Packard Filtermate Harvester, the filter plate were washed 4 times following transfer of the incubated samples. Plates were dry-filtered completely (2 h at 50° C. or overnight at room temperature). 50 uL Microscint 0 was added to all wells and read on Topcount protocol Inverted.
Final concentrations were as follows: 50 mM HEPES buffer (pH 7.4); 150 mM NaCl; 1 mM DTT; 5 mM MgCl2; 0.01% BSA; 5% DMSO; 0.6 ug/mL RORc receptor; 6 nM 25-[^3H]hydroxycholesterol. For NSB wells, 1 uM 25-hydroxycholesterol was also present.
As for `C[C@H]1CC[C@H](c2ccccc2)S(=O)(=O)N1Cc1cc(F)c([C@]2(c3n[nH]c(=O)o3)C[C@@](C)(O)C2)cc1F` [Example 127, cis-5-[1-[2,5-difluoro-4-[[(3S,6R)-3-methyl-1,1-dioxo-6-phenyl-thiazinan-2-yl]methyl]phenyl]-3-hydroxy-3-methyl-cyclobutyl]-3H-1,3,4-oxadiazol-2-one], the IC50 (commonly the concentration needed to halve the response being measured) is 7.2 nM.
The same measure for `C[C@H]1CC[C@H](c2ccccc2)S(=O)(=O)N1Cc1cc(F)c([C@]2(c3n[nH]c(=O)o3)C[C@](C)(O)C2)cc1F` [Example 128, trans-5-[1-[2,5-difluoro-4-[[(3S,6R)-3-methyl-1,1-dioxo-6-phenyl-thiazinan-2-yl]methyl]phenyl]-3-hydroxy-3-methyl-cyclobutyl]-3H-1,3,4-oxadiazol-2-one]: 3.4 nM; for `C[C@H]1CC[C@H](c2ccccc2)S(=O)(=O)N1Cc1cc(F)c(C2(c3nnc(N)o3)CC(F)(F)C2)cc1F` [Example 132, 5-[1-[2,5-difluoro-4-[[(3S,6R)-3-methyl-1,1-dioxo-6-phenyl-thiazinan-2-yl]methyl]phenyl]-3,3-difluoro-cyclobutyl]-1,3,4-oxadiazol-2-amine]: 12.8 nM.
`Cc1nn(C)cc1CNC1(c2cc(F)c(CN3[C@@H](C)CC[C@H](c4ccccc4)S3(=O)=O)cc2F)COC1` [Example 135, 3-[2,5-difluoro-4-[[(3S,6R)-3-methyl-1,1-dioxo-6-phenyl-thiazinan-2-yl]methyl]phenyl]-N-[(1,3-dimethylpyrazol-4-yl)methyl]oxetan-3-amine] gave an IC50 of 201 nM.
Turning to `C[C@H]1CC[C@H](c2ccccc2)S(=O)(=O)N1Cc1cc(F)c(C2(NCC3CCOC3)COC2)cc1F` (stereo partly drawn) [Example 136, 3-[2,5-difluoro-4-[[(3S,6R)-3-methyl-1,1-dioxo-6-phenyl-thiazinan-2-yl]methyl]phenyl]-N-(tetrahydrofuran-3-ylmethyl)oxetan-3-amine], the IC50 was 23.9 nM.
Molecule `C[C@H]1CC[C@H](c2ccccc2)S(=O)(=O)N1Cc1cc(F)c(C2(NCc3ccnn3C)COC2)cc1F` [Example 137, 3-[2,5-difluoro-4-[[(3S,6R)-3-methyl-1,1-dioxo-6-phenyl-thiazinan-2-yl]methyl]phenyl]-N-[(2-methylpyrazol-3-yl)methyl]oxetan-3-amine] had a half-maximal inhibitory concentration (IC50) of 89.4 nM.
Turning to `C[C@H]1CC[C@H](c2ccccc2)S(=O)(=O)N1Cc1cc(F)c(C2(NCc3cnn(C)c3)COC2)cc1F` [Example 138, 3-[2,5-difluoro-4-[[(3S,6R)-3-methyl-1,1-dioxo-6-phenyl-thiazinan-2-yl]methyl]phenyl]-N-[(1-methylpyrazol-4-yl)methyl]oxetan-3-amine], the IC50 worked out at 69.4 nM.
The same measure for `C[C@H]1CC[C@H](c2ccccc2)S(=O)(=O)N1Cc1cc(F)c([C@]2(c3n[nH]c(=O)o3)C[C@](C)(F)C2)cc1F` [Example 139, trans 5-[1-[2,5-difluoro-4-[[(3S,6R)-3-methyl-1,1-dioxo-6-phenyl-thiazinan-2-yl]methyl]phenyl]-3-fluoro-3-methyl-cyclobutyl]-3H-1,3,4-oxadiazol-2-one]: 3.9 nM; for `C[C@H]1CC[C@H](c2ccccc2)S(=O)(=O)N1Cc1cc(F)c(C2(c3nn(C)c(=O)o3)CCOCC2)cc1F` [Example 140, 5-[4-[2,5-difluoro-4-[[(3S,6R)-3-methyl-1,1-dioxo-6-phenyl-thiazinan-2-yl]methyl]phenyl]tetrahydropyran-4-yl]-3-methyl-1,3,4-oxadiazol-2-one]: 12.8 nM; for `C[C@H]1CC[C@H](c2ccccc2)S(=O)(=O)N1Cc1cc(F)c([C@]2(c3n[nH]c(=O)o3)C[C@](O)(C3CC3)C2)cc1F` [Example 141, cis 5-[3-cyclopropyl-1-[2,5-difluoro-4-[[(3S,6R)-3-methyl-1,1-dioxo-6-phenyl-thiazinan-2-yl]methyl]phenyl]-3-hydroxy-cyclobutyl]-3H-1,3,4-oxadiazol-2-one]: 9.2 nM.
The molecule `C[C@H]1CC[C@H](c2ccccc2)S(=O)(=O)N1Cc1cc(F)c([C@]2(c3n[nH]c(=O)o3)C[C@@](O)(C3CC3)C2)cc1F` [Example 142, trans 5-[3-cyclopropyl-1-[2,5-difluoro-4-[[(3S,6R)-3-methyl-1,1-dioxo-6-phenyl-thiazinan-2-yl]methyl]phenyl]-3-hydroxy-cyclobutyl]-3H-1,3,4-oxadiazol-2-one] showed an IC50 of 4.3 nM.
`C[C@H]1CC[C@@H](c2ccccc2)S(=O)(=O)N1Cc1cc(F)c(C2(c3n[nH]c(=O)o3)CCC2)cc1F` [Example 143, 5-[1-[2,5-difluoro-4-[[(3S,6S)-3-methyl-1,1-dioxo-6-phenyl-thiazinan-2-yl]methyl]phenyl]cyclobutyl]-3H-1,3,4-oxadiazol-2-one] displayed a half-maximal inhibitory concentration (IC50) of 151 nM.
`C[C@H]1CC[C@H](c2ccccc2)S(=O)(=O)N1Cc1cc(F)c(C2(c3n[nH]c(=O)o3)CCC2)cc1F` [Example 144, 5-[1-[2,5-difluoro-4-[[(3S,6R)-3-methyl-1,1-dioxo-6-phenyl-thiazinan-2-yl]methyl]phenyl]cyclobutyl]-3H-1,3,4-oxadiazol-2-one]: the IC50 was found to be 9.4 nM.
`C[C@H]1CC[C@H](c2ccccc2)S(=O)(=O)N1Cc1cc(F)c([C@]2(c3nnc[nH]3)C[C@](C)(O)C2)cc1F` [Example 145, trans 3-[2,5-difluoro-4-[[(3S,6R)-3-methyl-1,1-dioxo-6-phenyl-thiazinan-2-yl]methyl]phenyl]-1-methyl-3-(4H-1,2,4-triazol-3-yl)cyclobutanol] displayed an IC50 of 7 nM.
The molecule `C[C@H]1CC[C@H](c2ccccc2)S(=O)(=O)N1Cc1cc(F)c([C@]2(c3nn(C)c(=O)o3)C[C@@H](O)C2)cc1F` [Example 146, cis 5-[1-[2,5-difluoro-4-[[(3S,6R)-3-methyl-1,1-dioxo-6-phenyl-thiazinan-2-yl]methyl]phenyl]-3-hydroxy-cyclobutyl]-3-methyl-1,3,4-oxadiazol-2-one] registered an IC50 of 17.6 nM.
Molecule `C[C@H]1CC[C@H](c2ccccc2)S(=O)(=O)N1Cc1cc(F)c([C@]2(c3nn(C)c(=O)o3)C[C@H](O)C2)cc1F` [Example 147, trans 5-[1-[2,5-difluoro-4-[[(3S,6R)-3-methyl-1,1-dioxo-6-phenyl-thiazinan-2-yl]methyl]phenyl]-3-hydroxy-cyclobutyl]-3-methyl-1,3,4-oxadiazol-2-one] had an IC50 of 4.6 nM.
Molecule `C[C@H]1CC[C@H](c2ccccc2)S(=O)(=O)N1Cc1cc(F)c([C@]2(c3n[nH]c(=O)o3)C[C@@](O)(C(F)(F)F)C2)cc1F` [Example 149, trans 5-[1-[2,5-difluoro-4-[[(3S,6R)-3-methyl-1,1-dioxo-6-phenyl-thiazinan-2-yl]methyl]phenyl]-3-hydroxy-3-(trifluoromethyl)cyclobutyl]-3H-1,3,4-oxadiazol-2-one] yielded a half-inhibitory concentration (IC50) of 5.3 nM.
The molecule `C[C@H]1CC[C@H](c2ccccc2)S(=O)(=O)N1Cc1cc(F)c([C@]2(c3n[nH]c(=O)o3)C[C@@H]2CO)cc1F` [Example 150, 5-[(1S,2S)-1-[2,5-difluoro-4-[[(3S,6R)-3-mcthyl-1,1-dioxo-6-phenyl-thiazinan-2-yl]methyl]phenyl]-2-(hydroxymethyl)cyclopropyl]-3H-1,3,4-oxadiazol-2-one] registered a half-inhibitory concentration (IC50) of 39 nM.
As to `C[C@H]1CC[C@H](c2ccccc2)S(=O)(=O)N1Cc1cc(F)c([C@]2(c3nn(C)c(=O)o3)C[C@](C)(O)C2)cc1F` [Example 151, trans 5-[1-[2,5-difluoro-4-[[(3S,6R)-3-methyl-1,1-dioxo-6-phenyl-thiazinan-2-yl]methyl]phenyl]-3-hydroxy-3-methyl-cyclobutyl]-3-methyl-1,3,4-oxadiazol-2-one], the half-inhibitory concentration (IC50) is 6.9 nM.
`C[C@H]1CC[C@H](c2ccccc2)S(=O)(=O)N1Cc1cc(F)c([C@]2(c3n[nH]c(=O)o3)C[C@@H](CC#N)C2)cc1F` [Example 152, cis 2-[3-[2,5-difluoro-4-[[(3S,6R)-3-methyl-1,1-dioxo-6-phenyl-thiazinan-2-yl]methyl]phenyl]-3-(2-oxo-3H-1,3,4-oxadiazol-5-yl)cyclobutyl]acetonitrile] came in with a concentration for half-maximal inhibition (IC50) of 7.1 nM.
The molecule `C[C@H]1CC[C@H](c2ccccc2)S(=O)(=O)N1Cc1cc(F)c([C@]2(c3n[nH]c(=O)o3)C[C@H](CC#N)C2)cc1F` [Example 153, trans 2-[3-[2,5-difluoro-4-[[(3S,6R)-3-methyl-1,1-dioxo-6-phenyl-thiazinan-2-yl]methyl]phenyl]-3-(2-oxo-3H-1,3,4-oxadiazol-5-yl)cyclobutyl]acetonitrile] gave an IC50 of 8.7 nM.
As for `CO[C@H]1C[C@@](c2n[nH]c(=O)o2)(c2cc(F)c(CN3[C@@H](C)CC[C@H](c4ccccc4)S3(=O)=O)cc2F)C1` [Example 154, trans 5-[1-[2,5-difluoro-4-[[(3S,6R)-3-methyl-1,1-dioxo-6-phenyl-thiazinan-2-yl]methyl]phenyl]-3-methoxy-cyclobutyl]-3H-1,3,4-oxadiazol-2-one], the IC50 worked out at 6.2 nM.
Consider `CO[C@H]1C[C@](c2n[nH]c(=O)o2)(c2cc(F)c(CN3[C@@H](C)CC[C@H](c4ccccc4)S3(=O)=O)cc2F)C1` [Example 155, cis 5-[1-[2,5-difluoro-4-[[(3S,6R)-3-methyl-1,1-dioxo-6-phenyl-thiazinan-2-yl]methyl]phenyl]-3-methoxy-cyclobutyl]-3H-1,3,4-oxadiazol-2-one], for which the IC50 turned out to be 11.3 nM.
Turning to `CO[C@]1(C)C[C@](c2n[nH]c(=O)o2)(c2cc(F)c(CN3[C@@H](C)CC[C@H](c4ccccc4)S3(=O)=O)cc2F)C1` [Example 156, trans 5-[1-[2,5-difluoro-4-[[(3S,6R)-3-methyl-1,1-dioxo-6-phenyl-thiazinan-2-yl]methyl]phenyl]-3-methoxy-3-methyl-cyclobutyl]-3H-1,3,4-oxadiazol-2-one], the 50% inhibitory concentration (IC50) worked out at 4 nM.
